Literature values as cited in patent US8951557B2, “Sustained release solid formulations and methods of manufacturing the same” (Hana Pharm. Co. Ltd., priority 2008, dated 2015).

How the values were obtained:
[1] = 5 mg rapid release tablet administered
[2] = administered orally, compared to direct administration into bloodstream

COc1ccc2c3c1O[C@H]1C(=O)CC[C@@]4(O)[C@@H](C2)N(C)CC[C@]314.Cl [Oxycodone hydrochloride]
time the analgesic effect sustains [1]: 4 to 6 h | bioavailability [2]: 60-87%
